Laboratory results: the supplement of paper PMC10627819

Key:
Experiment in all cases: fitness (endpoint OD595 vs no drug) (fraction); higher = more growth
S. aureus DSM 20231 = system: S. aureus DSM 20231
Outline: (§1)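 Bacterial growth was followed in 384-well plates seeded at OD595 0.01, with 30 µl per well, or 55 µl for S. pneumoniae, in TSB, LB Lennox or CY at 37 °C. OD595 was read every 30 min for 14 h, and each reading had the first reading subtracted as background. Fitness is the background-corrected optical density at entry into stationary phase divided by the robust mean of the no-drug control wells. This ratio is capped at 1.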

S. aureus Newman = system: S. aureus Newman
Outline: as §1

S. pneumoniae D39V = system: S. pneumoniae D39V
Outline: as §1

B. subtilis 168 = system: B. subtilis 168
Outline: as §1

O=C(O[C@@H]1Cc2c(O)cc(O)cc2O[C@@H]1c1cc(O)c(O)c(O)c1)c1cc(O)c(O)c(O)c1 [EGCG] + CO/N=C(\C(=O)N[C@@H]1C(=O)N2C(C(=O)[O-])=C(C[N+]3(C)CCCC3)CS[C@H]12)c1csc(N)n1 [Cefepime]
fitness
Settings | first compound 12.5 µg/mL | first compound 25 µg/mL | first compound 50 µg/mL
S. aureus DSM 20231, partner 0.125 µg/mL | 0.736 | 0.725 | –
S. aureus DSM 20231, partner 0.25 µg/mL | 0.634 | 0.563 | 0.583
S. aureus DSM 20231, partner 0.5 µg/mL | 0.616 | 0.576 | 0.587
S. aureus Newman, partner 0.125 µg/mL | 0.789 | 0.722 | 0.72
S. aureus Newman, partner 0.25 µg/mL | 0.736 | 0.685 | 0.678
S. aureus Newman, partner 0.5 µg/mL | 0.656 | 0.724 | 0.657
S. pneumoniae D39V, partner 0.007 µg/mL | 0.958 | 0.951 | 0.985
S. pneumoniae D39V, partner 0.0078 µg/mL | ≥ 1 | 0.874 | 0.939
S. pneumoniae D39V, partner 0.014 µg/mL | 0.998 | 0.987 | 0.998
S. pneumoniae D39V, partner 0.0155 µg/mL | 0.96 | ≥ 1 | 0.931
S. pneumoniae D39V, partner 0.028 µg/mL | 0.928 | 0.979 | 0.973
S. pneumoniae D39V, partner 0.031 µg/mL | 0.733 | 0.716 | 0.853

CCC[C@@H]1C[C@@H](C(=O)N[C@@H]([C@H]2O[C@H](SC)[C@H](O)[C@@H](O)[C@H]2O)[C@H](C)Cl)N(C)C1 [Clindamycin] + CO/N=C(\C(=O)N[C@@H]1C(=O)N2C(C(=O)[O-])=C(C[N+]3(C)CCCC3)CS[C@H]12)c1csc(N)n1 [Cefepime]
Settings | fitness
S. aureus DSM 20231, first compound 0.125 µg/mL, partner 0.125 µg/mL | 0.0728
S. aureus DSM 20231, first compound 0.125 µg/mL, partner 0.25 µg/mL | 0.0809
S. aureus DSM 20231, first compound 0.125 µg/mL, partner 0.5 µg/mL | 0.0837
S. aureus Newman, first compound 0.0312 µg/mL, partner 0.125 µg/mL | 0.781
S. aureus Newman, first compound 0.0312 µg/mL, partner 0.25 µg/mL | 0.713
S. aureus Newman, first compound 0.0312 µg/mL, partner 0.5 µg/mL | 0.601
S. aureus Newman, first compound 0.125 µg/mL, partner 0.125 µg/mL | 0.187
S. aureus Newman, first compound 0.125 µg/mL, partner 0.25 µg/mL | 0.158
S. aureus Newman, first compound 0.125 µg/mL, partner 0.5 µg/mL | 0.151
S. pneumoniae D39V, first compound 0.0125 µg/mL, partner 0.0078 µg/mL | 0.809
S. pneumoniae D39V, first compound 0.0125 µg/mL, partner 0.0155 µg/mL | 0.818
S. pneumoniae D39V, first compound 0.0125 µg/mL, partner 0.031 µg/mL | 0.802
S. pneumoniae D39V, first compound 0.015 µg/mL, partner 0.007 µg/mL | 0.914
S. pneumoniae D39V, first compound 0.015 µg/mL, partner 0.014 µg/mL | 0.937
S. pneumoniae D39V, first compound 0.015 µg/mL, partner 0.028 µg/mL | 0.841
S. pneumoniae D39V, first compound 0.025 µg/mL, partner 0.0078 µg/mL | 0.599
S. pneumoniae D39V, first compound 0.025 µg/mL, partner 0.0155 µg/mL | 0.57
S. pneumoniae D39V, first compound 0.025 µg/mL, partner 0.031 µg/mL | 0.523
S. pneumoniae D39V, first compound 0.03 µg/mL, partner 0.007 µg/mL | 0.771
S. pneumoniae D39V, first compound 0.03 µg/mL, partner 0.014 µg/mL | 0.789
S. pneumoniae D39V, first compound 0.03 µg/mL, partner 0.028 µg/mL | 0.696
S. pneumoniae D39V, first compound 0.05 µg/mL, partner 0.0078 µg/mL | 0.264
S. pneumoniae D39V, first compound 0.05 µg/mL, partner 0.0155 µg/mL | 0.255
S. pneumoniae D39V, first compound 0.05 µg/mL, partner 0.031 µg/mL | 0.241
S. pneumoniae D39V, first compound 0.06 µg/mL, partner 0.007 µg/mL | 0.408
S. pneumoniae D39V, first compound 0.06 µg/mL, partner 0.014 µg/mL | 0.411
S. pneumoniae D39V, first compound 0.06 µg/mL, partner 0.028 µg/mL | 0.365

N[C@@H]1CONC1=O [Cycloserine D] + O=C(O[C@@H]1Cc2c(O)cc(O)cc2O[C@@H]1c1cc(O)c(O)c(O)c1)c1cc(O)c(O)c(O)c1 [EGCG]
fitness
Settings | partner 6.25 µg/mL | partner 12.5 µg/mL | partner 25 µg/mL | partner 50 µg/mL
B. subtilis 168, first compound 0.125 µg/mL | 0.934 | 0.567 | – | –
B. subtilis 168, first compound 0.25 µg/mL | 0.898 | – | 0.289 | –
B. subtilis 168, first compound 0.5 µg/mL | 0.938 | 0.443 | – | –
S. aureus DSM 20231, first compound 0.375 µg/mL | – | 0.785 | 0.784 | 0.776
S. aureus DSM 20231, first compound 0.75 µg/mL | – | 0.73 | 0.772 | –
S. aureus DSM 20231, first compound 1.5 µg/mL | – | 0.798 | 0.663 | –
S. aureus Newman, first compound 0.375 µg/mL | – | 0.77 | 0.765 | 0.691
S. aureus Newman, first compound 0.75 µg/mL | – | 0.805 | 0.821 | 0.697
S. aureus Newman, first compound 1.5 µg/mL | – | 0.851 | 0.779 | 0.706
